Measured values: article PMC8216263 (Pharmaceutical Biology, 2021)

How the values were obtained:
OATP1B1 = target: T1, OATP1B1 (Homo sapiens, UniProt Q9Y6L6); test: Inhibition of OATP1B1-mediated 3H-ES uptake in HEK293-OATP1B1 cells; type: cell-based; settings: GA 50–5000 μg/L, PCA 10–1000 μg/L
T1 sequence (Q9Y6L6 1-691): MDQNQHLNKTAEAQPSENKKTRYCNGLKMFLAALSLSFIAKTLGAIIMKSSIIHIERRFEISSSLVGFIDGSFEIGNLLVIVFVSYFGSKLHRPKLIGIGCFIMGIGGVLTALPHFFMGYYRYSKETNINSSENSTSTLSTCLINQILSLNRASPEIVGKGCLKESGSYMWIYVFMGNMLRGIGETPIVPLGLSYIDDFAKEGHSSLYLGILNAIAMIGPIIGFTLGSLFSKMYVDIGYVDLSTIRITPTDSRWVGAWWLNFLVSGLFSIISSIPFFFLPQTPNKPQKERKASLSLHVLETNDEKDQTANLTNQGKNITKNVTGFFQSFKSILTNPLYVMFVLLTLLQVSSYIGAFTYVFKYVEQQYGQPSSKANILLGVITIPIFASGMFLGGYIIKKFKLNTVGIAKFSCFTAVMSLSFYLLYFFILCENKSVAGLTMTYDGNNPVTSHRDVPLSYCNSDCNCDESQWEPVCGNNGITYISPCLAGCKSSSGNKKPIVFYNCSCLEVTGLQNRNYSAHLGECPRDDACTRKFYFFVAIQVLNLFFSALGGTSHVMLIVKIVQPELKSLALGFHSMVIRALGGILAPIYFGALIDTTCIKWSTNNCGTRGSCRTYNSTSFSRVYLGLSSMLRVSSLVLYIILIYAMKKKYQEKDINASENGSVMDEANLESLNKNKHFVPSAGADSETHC
Description: The human multidrug resistance protein (MDR)1-transfected Madin–Darby Canine Kidney (MDCK) cells, human breast cancer resistance protein (BCRP)-transfected MDCK cells, human organic anion transporter (OAT)1-transfected MDCK cells, OAT3-transfected second portion of proximal tubule (S2) cells, human organic cation transporter (OCT)2-transfected S2 cells, human organic anion transporting polypeptide (OATP)1B1-transfected human embryonic kidney 293 (HEK293) cells and their MOCK cells were kindly provided by Japan Fuji Biomedical Co., Ltd. (Osaka, Japan). Cells were cultured in DMEM supplemented with 10% FBS, 100 units/mL penicillin and 100 […]. All cells were incubated in a humidified atmosphere of 95% air and 5% CO2 at 37 °C. A solution of 0.25% trypsin-EDTA was used to detach the cells from flasks. Cell culture flasks, 24-well cell culture plates, and transwell polycarbonate inserts (12 mm diameter, 0.4 μm pore size) were purchased from Corning Co-star Corp. (Bedford, MA).
Concentration-dependent inhibitions were conducted to study GA and PCA’s inhibitory effects on uptake transporters OAT1, OAT3, OCT2 and OATP1B1. The MDCK-OAT1, S2-OAT3, S2-OCT2 and HEK293-OATP1B1 cell lines were utilized in this study. […] The radioactive intensity was measured using a Tri-Carb 2910TR scintillator (PerkinElmer, Waltham, MA). […]

OCT2 = target: T2, OCT2 (Homo sapiens, UniProt O15244); test: Inhibition of OCT2-mediated 14C-TEA uptake in S2-OCT2 cells; type: cell-based; settings: GA at 150 and 500 μg/L; PCA 100 to 1000 μg/L; p < 0.05 vs control
T2 construct: host or cells: S2 (second portion of proximal tubule) cells
T2 sequence (O15244 1-555): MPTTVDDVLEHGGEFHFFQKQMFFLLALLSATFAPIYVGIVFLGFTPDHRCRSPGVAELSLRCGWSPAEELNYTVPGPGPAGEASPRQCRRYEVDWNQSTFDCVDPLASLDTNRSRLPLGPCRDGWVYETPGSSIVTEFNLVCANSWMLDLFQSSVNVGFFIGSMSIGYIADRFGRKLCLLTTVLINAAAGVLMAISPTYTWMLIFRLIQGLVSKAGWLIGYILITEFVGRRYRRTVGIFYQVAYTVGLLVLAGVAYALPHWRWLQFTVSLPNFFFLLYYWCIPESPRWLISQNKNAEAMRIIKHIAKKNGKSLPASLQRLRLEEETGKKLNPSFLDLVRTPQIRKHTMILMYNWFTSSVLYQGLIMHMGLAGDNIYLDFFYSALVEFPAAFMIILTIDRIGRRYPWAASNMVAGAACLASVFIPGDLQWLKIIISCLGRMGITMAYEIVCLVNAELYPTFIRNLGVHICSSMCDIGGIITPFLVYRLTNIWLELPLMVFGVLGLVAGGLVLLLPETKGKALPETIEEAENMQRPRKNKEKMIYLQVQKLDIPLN
Description: Cells were cultured in DMEM supplemented with 10% FBS, 100 units/mL penicillin and 100 units/mL streptomycin. […] Cell culture flasks, 24-well cell culture plates, and transwell polycarbonate inserts (12 mm diameter, 0.4 μm pore size) were purchased from Corning Co-star Corp. (Bedford, MA).
The MDCK-OAT1, S2-OAT3, S2-OCT2 and HEK293-OATP1B1 cell lines were utilized in this study. […] Briefly, S2-OAT3, S2-OCT2 and S2-mock cells were trypsinized and uniformly suspended in the culture medium’s designated volume to provide a density of 2.0 × 10^5 cells/mL. A 1.0-mL aliquot of the cell suspension was added into each well of 24-well insert plates. HEK293-OATP1B1, MDCK-OAT1 and their mock cells were seeded in 24-well plates at a density of 1.5 × 10^5 cells/well. […] Three washes terminated the experiment with ice-cold DPBS buffer after removing the incubation buffer. Cells were lysed with 400 μL of […] sodium hydroxide solution. The cell lysate and 3.0 mL of aquasol-2 scintillation fluid were put into a scintillation flask. […] The final concentration of DMSO in the assay was less than 0.1%. All experiments were performed in triplicate.

Structure (SMILES): O=C(O)c1ccc(O)c(O)c1 [PCA, protocatechuic acid]
- inhibitory effect on OATP1B1-mediated uptake of 3H-ES (OATP1B1): no statistical differences
- effect on OCT2-mediated uptake of 14C-TEA (OCT2): statistical decline
